Reference: US10765114B2, “4-amino-6-(pyridyl and 2-substitutedphenyl)-picolinates and 6-amino-2-(pyridyl and 2-substitutedphenyl)-pyrimidine-4-carboxylates and their use as herbicides” (Dow AgroSciences LLC, priority 2013, dated 2020)
Where two headings read alike, the source gives them in different places.

Tests used:
[1] = tested on: Key Grass and Sedge Weeds as well as Grass Crops; experiment: Post-Emergent Test II (Table 6); type: in vivo; conditions: post-emergence, 336 h, 14 days after application; for pest or weed control at 70 g/ha: 70 g ai/ha; for pest or weed control at 140 g/ha: 140 g ai/ha
Method in brief: (§1)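 Visual injury ratings (0 = no injury, 100 = complete kill) taken 14 days after treatment, relative to untreated controls. Compounds, in an acetone/DMSO aqueous carrier with crop oil and surfactant, were applied by track sprayer at 187 L/ha, in a twofold dilution series from the top rate, to plants at the first to second true-leaf stage.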

[2] = tested on: Key Broadleaf Weed and Crop Species; experiment: Post-Emergent Test II (Table 5); type: in vivo; conditions: post-emergence, 336 h; for pest or weed control at 70 g/ha: application rate 70 (kg ai/ha; footnote: g ai/ha); for pest or weed control at 140 g/ha: application rate 140 (kg ai/ha; footnote: g ai/ha)
Method in brief: as §1

[3] = CYPSS, read-out: Visual Growth Reduction (%) 14 Days After Application CYPSS
[4] = DIGSA: crabgrass (Digitaria sanguinalis), read-out: Visual Growth Reduction (%) 14 Days After Application DIGSA
[5] = ECHSS, read-out: Visual Growth Reduction (%) 14 Days After Application ECHSS
[6] = ORYSS (crop), read-out: Visual Growth Reduction (%) 14 Days After Application ORYSS
[7] = SETFA: giant foxtail (Setaria faberi), read-out: Visual Growth Reduction (%) 14 Days After Application SETFA
[8] = SORVU: grain sorghum (Sorghum vulgare), read-out: Visual Growth Reduction (%) 14 Days After Application SORVU
[9] = TRZSS (crop), read-out: Visual Growth Reduction (%) 14 Days After Application TRZSS
[10] = ZEAMX: maize, corn (Zea mays), read-out: Visual Growth Reduction (%) 14 Days After Application ZEAMX
[11] = Abutilon theophrasti, ABUTH: velvetleaf (Abutilon theophrasti), read-out: Visual Growth Reduction (%) 14 Days After Application ABUTH
[12] = Amaranthus retroflexus, AMARE: redroot pigweed (Amaranthus retroflexus), read-out: Visual Growth Reduction (%) 14 Days After Application AMARE
[13] = Brassica napus, BRSSS: oilseed rape, canola (Brassica napus), read-out: Visual Growth Reduction (%) 14 Days After Application BRSSS
[14] = Chenopodium album, CHEAL: lambsquarters (Chenopodium album), read-out: Visual Growth Reduction (%) 14 Days After Application CHEAL
[15] = Euphorbia heterophylla, EPHHL: wild poinsettia (Euphorbia heterophylla), read-out: Visual Growth Reduction (%) 14 Days After Application EPHHL
[16] = Helianthus annuus, HELAN: sunflower (Helianthus annuus), read-out: Visual Growth Reduction (%) 14 Days After Application HELAN
[17] = Viola tricolor, VIOTR: wild pansy (Viola tricolor), read-out: Visual Growth Reduction (%) 14 Days After Application VIOTR

| melting point [°C] | SMILES | pest or weed control at 70 g/ha [1, 3] [%] | pest or weed control at 140 g/ha [1, 3] [%] | pest or weed control at 70 g/ha [1, 4] [%] | pest or weed control at 140 g/ha [1, 4] [%] | pest or weed control at 70 g/ha [1, 5] [%] | pest or weed control at 140 g/ha [1, 5] [%] | pest or weed control at 70 g/ha [1, 6] [%] | pest or weed control at 140 g/ha [1, 6] [%] | pest or weed control at 70 g/ha [1, 7] [%] | pest or weed control at 140 g/ha [1, 7] [%] | pest or weed control at 70 g/ha [1, 8] [%] | pest or weed control at 140 g/ha [1, 8] [%] | pest or weed control at 70 g/ha [1, 9] [%] | pest or weed control at 140 g/ha [1, 9] [%] | pest or weed control at 70 g/ha [1, 10] [%] | pest or weed control at 140 g/ha [1, 10] [%] | pest or weed control at 70 g/ha [2, 11] [%] | pest or weed control at 140 g/ha [2, 11] [%] | pest or weed control at 70 g/ha [2, 12] [%] | also measured |
| --- | --- | --- | --- | --- | --- | --- | --- | --- | --- | --- | --- | --- | --- | --- | --- | --- | --- | --- | --- | --- | --- |
| 154 to 156 | COC(=O)c1nc(-c2ccc(Cl)c(F)c2C)c(F)c(N)c1Cl [Compound 68] | 0 to 29 | 0 to 29 | 0 to 29 | 0 to 29 | 0 to 29 | 0 to 29 | 0 to 29 | 0 to 29 | 0 to 29 | 0 to 29 | 0 to 29 | 0 to 29 | 0 to 29 | 0 to 29 | 0 to 29 | 0 to 29 | 95 to 100 | 95 to 100 | 95 to 100 | pest or weed control at 140 g/ha [2, 12]: 95 to 100%; pest or weed control at 70 g/ha [2, 13]: 85 to 94%; pest or weed control at 140 g/ha [2, 13]: 95 to 100%; pest or weed control at 70 g/ha [2, 14]: 95 to 100%; pest or weed control at 140 g/ha [2, 14]: 95 to 100%; pest or weed control at 70 g/ha [2, 15]: 0 to 29%; pest or weed control at 140 g/ha [2, 15]: 0 to 29%; pest or weed control at 70 g/ha [2, 16]: 95 to 100%; pest or weed control at 140 g/ha [2, 16]: 95 to 100%; pest or weed control at 70 g/ha [2, 17]: 30 to 44%; pest or weed control at 140 g/ha [2, 17]: 30 to 44% |
| 120 to 126 | COC(=O)c1nc(-c2ccc(F)c(F)c2C)cc(N)c1Cl [Compound 69] | 45 to 59 | 95 to 100 | 0 to 29 | 0 to 29 | 0 to 29 | 0 to 29 | 0 to 29 | 0 to 29 | 0 to 29 | 0 to 29 | 0 to 29 | 0 to 29 | 0 to 29 | 0 to 29 | 0 to 29 | 0 to 29 | 95 to 100 | 95 to 100 | 95 to 100 | pest or weed control at 140 g/ha [2, 12]: 95 to 100%; pest or weed control at 70 g/ha [2, 13]: 85 to 94%; pest or weed control at 140 g/ha [2, 13]: 95 to 100%; pest or weed control at 70 g/ha [2, 14]: 95 to 100%; pest or weed control at 140 g/ha [2, 14]: 95 to 100%; pest or weed control at 70 g/ha [2, 15]: 0 to 29%; pest or weed control at 140 g/ha [2, 15]: 0 to 29%; pest or weed control at 70 g/ha [2, 16]: 85 to 94%; pest or weed control at 140 g/ha [2, 16]: 85 to 94%; pest or weed control at 70 g/ha [2, 17]: 0 to 29%; pest or weed control at 140 g/ha [2, 17]: 0 to 29% |
| 60 to 61 | COC(=O)c1nc(-c2ccc(Cl)c(F)c2OC)nc(N)c1OC [Compound 70, Methyl 6-amino-2-(4-chloro-3-fluoro-2-methoxyphenyl)-5-methoxypyrimidine-4-carboxylate] | 0 to 29 | 0 to 29 | 0 to 29 | 0 to 29 | 0 to 29 | 0 to 29 | 0 to 29 | 0 to 29 | 0 to 29 | 0 to 29 | 0 to 29 | 0 to 29 | 0 to 29 | 0 to 29 | 0 to 29 | 0 to 29 | 85 to 94 | 60 to 74 | 95 to 100 | pest or weed control at 140 g/ha [2, 12]: 95 to 100%; pest or weed control at 70 g/ha [2, 13]: 95 to 100%; pest or weed control at 140 g/ha [2, 13]: 95 to 100%; pest or weed control at 70 g/ha [2, 14]: 95 to 100%; pest or weed control at 140 g/ha [2, 14]: 95 to 100%; pest or weed control at 70 g/ha [2, 15]: 0 to 29%; pest or weed control at 140 g/ha [2, 15]: 0 to 29%; pest or weed control at 70 g/ha [2, 16]: 95 to 100%; pest or weed control at 140 g/ha [2, 16]: 95 to 100%; pest or weed control at 70 g/ha [2, 17]: 0 to 29%; pest or weed control at 140 g/ha [2, 17]: 0 to 29% |
| 134 to 136 | COC(=O)c1nc(-c2ccc(OC(F)F)nc2)c(F)c(N)c1Cl [Compound 71] | 0 to 29 | 45 to 59 | 75 to 84 | 60 to 74 | 60 to 74 | 75 to 84 | 0 to 29 | 0 to 29 | 75 to 84 | 85 to 94 | 60 to 74 | 75 to 84 | 45 to 59 | 45 to 59 | 0 to 29 | 60 to 74 | 85 to 94 | 85 to 94 | 0 to 29 | pest or weed control at 140 g/ha [2, 12]: 0 to 29%; pest or weed control at 70 g/ha [2, 13]: 30 to 44%; pest or weed control at 140 g/ha [2, 13]: 45 to 59%; pest or weed control at 70 g/ha [2, 14]: 85 to 94%; pest or weed control at 140 g/ha [2, 14]: 85 to 94%; pest or weed control at 70 g/ha [2, 15]: 95 to 100%; pest or weed control at 140 g/ha [2, 15]: 95 to 100%; pest or weed control at 70 g/ha [2, 16]: 85 to 94%; pest or weed control at 140 g/ha [2, 16]: 85 to 94%; pest or weed control at 70 g/ha [2, 17]: 0 to 29%; pest or weed control at 140 g/ha [2, 17]: 0 to 29% |
